Assay results as given in patent US9695191B2, “Conformationally constrained, fully synthetic macrocyclic compounds” (POLYPHOR AG, priority 2009, dated 2017).

Assays:
[1] = Metabolic stability, human microsomes; type: in vitro ADME; settings: 37° C.; for Metabolic Stability 60 min hum: % of the initial 0 minutes value at 60 min, 10 μM; for Metabolic Stability T ½ [min] hum: 10 μM compound, 1 mg/ml microsomal protein, sampling up to 60 min
Experimental: (§1) Microsomes from a human 50 donor mixed gender pool and 1:1 mixtures of microsomes from CD-1 mouse single-gender pools are purchased from Celsis (Belgium). The enzymatic reaction is performed in a buffer containing an NADPH regeneration system and microsomes with the following end concentrations: 100 mM potassium phosphate buffer (all from Sigma), 1 mg/mL glucose-6-phosphate, 1 mg/mL β-nicotinamide adenine dinucleotide phosphate (NADP), 0.65 mg/mL magnesium chloride, 0.8 units/mL of glucose-6-phosphate dehydrogenase (prediluted with 5 mM citrate buffer), 10 μM compound and 1 mg/ml microsomal protein. Compounds are incubated at 37° C. in duplicates and samples are taken after 0, 20 and 60 minutes. After acetonitrile precipitation (2 volumes) and HPLC/MS/MS analysis metabolic turnover is expressed in % of the initial 0 minutes value and half life T½ (min) is calculated. Verapamil for human and propranolol for mouse are used as reference and are assayed with every experimental set. • F. P. Guengerich, Analysis and Characterization of Enzymes; in: Principles and Methods of Toxicology; A. W. Hayes (Ed.) Raven Press: New York, 1989, 777-813. • R. Singh et al., In vitro metabolism of a potent HIV-protease inhibitor (141W94) using rat, monkey and human liver S9, Rapid Commun. Mass Spectrom. 1996, 10, 1019-1026. 5. Results

[2] = Metabolic stability, CD-1 mouse microsomes; type: in vitro ADME; settings: 37° C.; for Metabolic Stability 60 min mouse: % of the initial 0 minutes value at 60 min, 10 μM; for Metabolic Stability T ½ [min] mouse: 10 μM compound, 1 mg/ml microsomal protein, sampling up to 60 min
Experimental: as §1

[3] = human, 10 μM
Experimental: (§2) Example compounds were dissolved in DMSO/H2O 90:10 to a final concentration of 10 mM for plasma stability determination and metabolic stability determination.
(§3) Human plasma (3-5 donors, Blutspendedienst SRK, Basel) and CD-1 mouse plasma (mixed gender pool>50 animals, Innovative Research, CA, USA) are both sodium citrate stabilized. The assay is performed in triplicates at 10 μM compound concentration and 37° C. Samples are taken at 0, 15, 60, and 240 minutes and stopped by precipitation with 2 volumes of acetonitrile. The supernatant is collected, evaporated and reconstituted in a 5% acetonitrile solution to be analyzed by HPLC/MS/MS. The resulting peak area counts are expressed in percent of the 0 value and used to determine the endpoint stability in % and the half life T½ in minutes. In order to monitor assay integrity the degradation of propantheline is assayed with every experimental set

[4] = both, CD-1, mouse, 10 μM
Experimental: as §2, §3

Structure (SMILES)	Metabolic Stability 60 min hum [1] [%]	Metabolic Stability 60 min mouse [2] [%]	Plasma Stability 240 min hum [3] [%]	Plasma Stability 240 min mouse [4] [%]	Metabolic Stability T ½ [min] hum [1] [min]	Metabolic Stability T ½ [min] mouse [2] [min]
CN1C[C@H](NC(=O)OCc2ccccc2)C(=O)N(C)CC(=O)N2C[C@@H](NC(=O)Cc3c[nH]c4ccccc34)C[C@H]2COc2cccc(c2)C1=O [Ex. 200, benzyl N-[(4S,6S,13S)-6-{[2-(1H-indol-3-yl)acetyl]amino}-11,15-dimethyl-9,12,16-trioxo-2-oxa-8,11,15-triazatricyclo[15.3.1.0^4,8]henicosa-1(21),17,19-trien-13-yl]carbamate]	12	26	91	100	–	–
CC(=O)N[C@H]1C[C@H]2COc3ccc(F)cc3C(=O)N(C)[C@H](C(=O)N3CCCC3)CCC(=O)N(C)CC(=O)N2C1 [Ex. 37, N-[(2S,11S,19aS)-15-fluoro-7,12-dimethyl-5,8,13-trioxo-11-(1-pyrrolidinylcarbonyl)-2,3,6,7,8,9,10,11,12,13,19,19a-dodecahydro-1H,5H-pyrrolo[2,1-c][1,4,7,12]benzoxatriazacyclopentadecin-2-yl]acetamide]	100	100	77	100	60	60
CCCCCCCCCC(=O)N[C@H]1C[C@H]2COc3ccc(F)cc3C(=O)N(C)[C@H](C(=O)NCc3ccc4ccccc4c3)CCC(=O)N(C)CC(=O)N2C1 [Ex. 102, (2S,11S,19aS)-2-(decanoylamino)-15-fluoro-7,12-dimethyl-N-(2-naphthylmethyl)-5,8,13-trioxo-2,3,6,7,8,9,10,11,12,13,19,19a-dodecahydro-1H,5H-pyrrolo[2,1-c][1,4,7,12] benzoxatriazacyclopentadecine-11-carboxamide]	4	39	65	75	–	–
CCCCC(=O)N[C@@H]1C[C@H]2COc3ccc(F)cc3C(=O)N(C)[C@H](C(=O)N(C)CCN(C)C)CCC(=O)N(C)CC(=O)N2C1 [Ex. 78, (2R,11S,19aS)-N-[2-(dimethylamino)ethyl]-15-fluoro-N,7,12-trimethyl-5,8,13-trioxo-2-(pentanoylamino)-2,3,6,7,8,9,10,11,12,13,19,19a-dodecahydro-1H,5H-pyrrolo[2,1-c][1,4,7,12]benzoxatriazacyclopentadecine-11-carboxamide]	78	100	65	100	–	–
CN1CC(=O)N2C[C@@H](NC(=O)CN3CCCC3)C[C@H]2COc2ccc(F)cc2C(=O)N(C)[C@@H](C(=O)N2CCCC2)CCC1=O [Ex. 98, N-[(2S,11R,19aS)-15-fluoro-7,12-dimethyl-5,8,13-trioxo-11-(1-pyrrolidinylcarbonyl)-2,3,6,7,8,9,10,11,12,13,19,19a-dodecahydro-1H,5H-pyrrolo[2,1-c][1,4,7,12]benzoxatriazacyclopentadecin-2-yl]-2-(1-pyrrolidinyl)acetamide]	97	100	100	78	–	–
CNC(=O)[C@H]1CCC(=O)N(C)CC(=O)N2C[C@@H](NC(=O)Cc3ccc4ccccc4c3)C[C@H]2COc2ccc(F)cc2C(=O)N1C [Ex. 93, (2S,11R,19aS)-15-fluoro-N,7,12-trimethyl-2-{[2-(2-naphthyl)acetyl]amino}-5,8,13-trioxo-2,3,6,7,8,9,10,11,12,13,19,19a-dodecahydro-1H,5H-pyrrolo[2,1-c][1,4,7,12] benzoxatriazacyclopentadecine-11-carboxamide]	1	15	100	100	–	–
CN1CC(=O)N2C[C@@H](NC(=O)CCC(=O)O)C[C@H]2COc2ccc(F)cc2C(=O)N(C)[C@@H](C(=O)NCc2ccc3ccccc3c2)CCC1=O [Ex. 95, 4-[((2S,11R,19aS)-15-fluoro-7,12-dimethyl-11-{[(2-naphthylmethyl)amino]carbonyl}-5,8,13-trioxo-2,3,6,7,8,9,10,11,12,13,19,19a-dodecahydro-1H,5H-pyrrolo [2,1-c][1,4,7,12]benzoxatriazacyclopentadecin-2-yl)amino]-4-oxobutanoic acid]	76	94	100	93	60	60

Second part, the molecule after the results:

Metabolic Stability 60 min hum [1] [%]	Metabolic Stability 60 min mouse [2] [%]	Plasma Stability 240 min hum [3] [%]	Plasma Stability 240 min mouse [4] [%]	Metabolic Stability T ½ [min] hum [1] [min]	Metabolic Stability T ½ [min] mouse [2] [min]	Structure (SMILES)
0	4	–	–	–	–	CCCCCCCCCC(=O)N[C@H]1CN(C)C(=O)c2cccc(c2)OC[C@@H]2C[C@H](NC(=O)Cc3c[nH]c4ccccc34)CN2C(=O)CN(C)C1=O [Ex. 213, N-[(4S,6S,13S)-6-{[2-(1H-indol-3-yl)acetyl]amino)-11,15-dimethyl-9,12,16-trioxo-2-oxa-8,11,15-triazatricyclo[15.3.1.0^4,8]henicosa-1(21),17,19-trien-13-yl]decanamide]
–	32	94	88	–	–	CN1CC(=O)N2C[C@H](NC(=O)Cc3ccc4ccccc4c3)C[C@H]2COc2ccc(cc2)C(=O)N(C)[C@H](C(=O)N2CCCC2)CCC1=O [Ex. 264, N-[(4S,6R,15S)-11,16-dimethyl-9,12,17-trioxo-15-(1-pyrrolidinylcarbonyl)-2-oxa-8,11,16-triazatricyclo[16.2.2.0^4,8]docosa-1(20),18,21-trien-6-yl]-2-(2-naphthyl)acetamide]
0	4	100	93	–	–	CCN(CC)[C@@H]1C[C@H]2COc3ccc(cc3)C(=O)N(C)[C@H](C(=O)NCc3ccc4ccccc4c3)CCC(=O)N(C)CC(=O)N2C1 [Ex. 262, (4S,6R,15S)-6-(diethylamino)-11,16-dimethyl-N-(2-naphthylmethyl)-9,12,17-trioxo-2-oxa-8,11,16-triazatricyclo [16.2.2.0^4,8]docosa-1(20),18,21-triene-15-carboxamide]
99	100	75	79	–	–	CN1CC(=O)N2C[C@H](NC(=O)CCC(=O)O)C[C@H]2COc2ccc(cc2)C(=O)N(C)[C@H](C(=O)NCc2ccncc2)CCC1=O [Ex. 267, 4-{[(4S,6R,15S)-11,16-dimethyl-9,12,17-trioxo-15-{[(4-pyridinylmethyl)amino]carbonyl}-2-oxa-8,11,16-triazatricyclo [16.2.2.0^4,8]docosa-1(20),18,21-trien-6-yl]amino}-4-oxobutanoic acid]
19	69	100	100	–	–	CN1CC(=O)N2C[C@H](NC(=O)CCc3ccncc3)C[C@H]2COc2ccc(cc2)C(=O)N(C)[C@H](C(=O)NCc2ccc3ccccc3c2)CCC1=O [Ex. 260, (4S,6R,15S)-11,16-dimethyl-N-(2-naphthylmethyl)-9,12,17-trioxo-6-{[3-(4-pyridinyl)propanoyl]amino}-2-oxa-8,11,16-triazatricyclo[16.2.2.0^4,8]docosa-1(20),18,21-triene-15-carboxamide]
